According to US20150057317A1, “GABR-A2 DIAGNOSTIC” (AstraZeneca AB, priority 2011, published 2015):

Columns and labels:
[1] = molecular target: NR1A/2A subtype of the NMDA receptor (Homo sapiens, UniProt Q05586+Q12879); conditions: cited from earlier work
[2] = system: patients with depression (poor responders to medications used in the treatment of depression); experiment: Phase II study in depression, MADRS response by GABR-A2 SNP genotype; type: in vivo, human; conditions: for Additive genetic effect of minor allele on change in MADRS total score: treatment group
Source text: Genomic DNA samples were collected from individuals enrolled in a Phase 11 study of COMPOUND A (total number of patients in the study was 152). The Phase II study was designed to measure the efficacy of COMPOUND A in the treatment of depression. Patients were selected for enrolment in the aforementioned Phase II study on the basis of their prior treatment history which defined them as poor responders to medications used in the treatment of depression. Common genetic variations (single nucleotide polymorphisms, SNPs) in genes encoding brain derived neurotrophic factor (BDNF) and the alpha-2 subunit of the GABAA receptor (GABR-A2) were tested using TaqMan® assays to measure their influence on the response to treatment for depression with COMPOUND A (an N-methyl-D-aspartate (NMDA) antagonist). Montgomery-Åsberg Depression Rating Scale (MADRS; Montgomery SA, Asberg M (April 1979). “A new depression scale designed to be sensitive to change”. British Journal of Psychiatry 134 (4): 382-89) was used as a measurement of treatment response. Thirty-two SNPs were selected for genotyping in GABR-A2 and six SNPs in BDNF.
However, the results from the GABR-A2 gene did indicate an influence on change in MADRS from baseline for a number of SNPs, with the rs3756007 SNP showing the strongest association. Table 1 lists those genetic variations tested for which, on average, the minor allele positively influenced change in MADRS after treatment with COMPOUND A. The P value from the patients treated with the drug (treatment group) is also shown (therapeutic_pvalue).
TaqMan® assays were used to detect the particular SNPs within the target genes. Each TaqMan® assay is specific for a given mutation or allele, i.e. designed to detect an alternate base relative to another base at a given position. each TaqMan® assay contains sequence-specific forward and reverse primers to amplify the polymorphic sequence of interest in the target gene along with TaqMan® probes labelled with different fluorescent tags to identify the target base (SNP). The TaqMan® assays were ordered from Applied Biosystems® and where possible Pre-Designed SNP Genotyping Assays were used. Each of the GABR-A2 SNPs showing association with an influence on the response to treatment for depression with COMPOUND A were detected using the commercially available Pre-Designed SNP Genotyping Assays.
For each SNP assay, genomic DNA was extracted from the clinical sample and the TaqMan® assay was carried out using the primers in Table 2. For the TaqMan® reaction approximately 10 ng of genomic DNA was used, in a total reaction volume of 2 ul. The reaction used TaqMan® Genotyping Master Mix (Applied Biosystems®, part number 4381657). The TaqMan® Genotyping Master Mix was diluted 1:1 with deionised water and the TaqMan® assay used at 80× concentration. The reaction was then securely sealed before Thermal Cycling. Cycle conditions: 95° C. for 10 minutes followed by 40 cycles of 92° C. for 15 seconds, 60° C. for 60 seconds in a Thermal Cycler instrument (KBiosystems DT-108 Thermal Cycler). The plate was then analysed on the Applied Biosystems® 7900HT Sequence Detection System using the pre-programmed “Allelic Discrimination” analysis in the Applied Biosystems® SDS v2.4 Software.

[3] = system: human volunteers and patients; conditions: cited from earlier work
patients with MDD = conditions: cited from earlier work

NR1A/2A subtype of the NMDA receptor, sequence (Q12879 23-1464, other chains not shown): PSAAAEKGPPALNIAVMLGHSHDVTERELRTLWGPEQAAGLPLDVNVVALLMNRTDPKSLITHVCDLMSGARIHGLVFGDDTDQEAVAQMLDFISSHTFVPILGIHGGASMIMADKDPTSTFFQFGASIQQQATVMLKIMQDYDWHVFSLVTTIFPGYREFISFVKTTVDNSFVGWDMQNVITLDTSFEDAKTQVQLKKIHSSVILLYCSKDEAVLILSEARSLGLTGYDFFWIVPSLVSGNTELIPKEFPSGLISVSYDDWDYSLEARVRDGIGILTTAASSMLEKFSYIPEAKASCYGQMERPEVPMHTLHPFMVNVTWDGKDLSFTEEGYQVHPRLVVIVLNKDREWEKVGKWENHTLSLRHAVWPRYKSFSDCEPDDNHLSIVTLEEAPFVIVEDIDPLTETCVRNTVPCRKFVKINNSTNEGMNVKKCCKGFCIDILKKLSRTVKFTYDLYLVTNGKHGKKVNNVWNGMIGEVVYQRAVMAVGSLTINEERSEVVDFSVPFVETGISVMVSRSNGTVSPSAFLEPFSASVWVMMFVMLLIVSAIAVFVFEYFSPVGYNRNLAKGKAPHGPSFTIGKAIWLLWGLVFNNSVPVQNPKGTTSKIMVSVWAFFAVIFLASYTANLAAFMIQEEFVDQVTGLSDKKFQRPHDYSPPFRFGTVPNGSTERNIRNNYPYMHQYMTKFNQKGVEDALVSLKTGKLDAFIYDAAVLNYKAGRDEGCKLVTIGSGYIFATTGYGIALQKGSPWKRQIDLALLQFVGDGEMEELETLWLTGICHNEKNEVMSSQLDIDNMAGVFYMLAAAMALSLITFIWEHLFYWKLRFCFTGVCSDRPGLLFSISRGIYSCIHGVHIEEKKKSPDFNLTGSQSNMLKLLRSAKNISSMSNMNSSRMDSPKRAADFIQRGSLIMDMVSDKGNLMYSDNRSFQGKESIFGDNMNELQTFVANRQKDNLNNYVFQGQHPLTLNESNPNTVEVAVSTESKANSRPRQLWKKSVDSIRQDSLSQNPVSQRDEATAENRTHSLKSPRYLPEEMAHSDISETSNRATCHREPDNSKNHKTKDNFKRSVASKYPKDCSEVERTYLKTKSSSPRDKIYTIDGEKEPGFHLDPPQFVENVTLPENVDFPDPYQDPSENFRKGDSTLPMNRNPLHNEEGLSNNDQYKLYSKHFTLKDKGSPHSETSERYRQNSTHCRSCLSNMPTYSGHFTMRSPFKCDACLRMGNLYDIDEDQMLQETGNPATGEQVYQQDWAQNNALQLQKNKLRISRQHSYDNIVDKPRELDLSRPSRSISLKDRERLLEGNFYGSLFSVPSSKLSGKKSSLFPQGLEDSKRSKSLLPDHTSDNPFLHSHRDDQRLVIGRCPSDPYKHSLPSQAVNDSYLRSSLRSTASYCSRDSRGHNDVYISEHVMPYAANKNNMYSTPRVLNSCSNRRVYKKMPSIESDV

For `N[C@@H](Cc1ccccn1)c1ccccc1` [COMPOUND A, (S)-1-phenyl-2-(pyridin-2-yl)ethanamine], the IC50 [1] is given as 0.35 µM, the “Additive genetic effect of minor allele on change in MADRS total score” value ([2]; SNP rs1372472, minor allele T, therapeutic P value 0.0108) is given as −4.83 and the “Additive genetic effect of minor allele on change in MADRS total score” value ([2]; SNP rs3756007, minor allele C, therapeutic P value 0.0021) is given as −12.84. The “Additive genetic effect of minor allele on change in MADRS total score” value ([2]; SNP rs11503016, minor allele T, therapeutic P value 0.0374) was −5.33, the “Additive genetic effect of minor allele on change in MADRS total score” value ([2]; SNP rs17537359, minor allele C, therapeutic P value 0.0038) was −9.40 and the “improvement in minor allele carriers versus major allele homozygote” value ([2]; minor allele at rs3756007, rs11503016, rs17537359 and rs1372472, on average) was “greater improvement”. For the same compound, the “propensity for causing psychotomimetic effects” value ([3]; compared with effects found with ketamine exposure) was “little propensity” and the tolerability ([3]; more than 500 human volunteers and patients) was “very well tolerated”.

In the case of `CNC1(c2ccccc2Cl)CCCCC1=O` (stereo not drawn) [ketamine], the antidepressant effects (patients with MDD) is given as “rapid antidepressant effects”.
